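Tested at 5 concentrations; 48 h exposure; 96-well plates; endpoints linearly interpolated, else capped at highest concentration. GI50: concentration for 50% inhibition of growth.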 Activity calls are given as the source filed them. No stated cut-off is given here; in the data, active = GI50 up to about 1.1 µM and inactive = higher.
What was measured:
Assay in all cases: NCI-60 cell line screen, 48 h
[1] = system: NCI-H460
[2] = system: NCI-H522
[3] = system: UACC-62
[4] = system: UO-31
[5] = system: 786-0
[6] = system: DU-145
[7] = system: SK-MEL-5
[8] = system: SF-539
[9] = system: Hs-578T
[10] = system: TK-10
[11] = system: HOP-62
[12] = system: SK-MEL-2
[13] = system: COLO 205
[14] = system: KM12
[15] = system: OVCAR-4
[16] = system: OVCAR-3
[17] = system: ACHN
[18] = system: NCI-H23
[19] = system: NCI-H226
[20] = system: M14
[21] = system: OVCAR-5
[22] = system: BT-549
[23] = system: HOP-92
[24] = system: SN12C
[25] = system: T47D
[26] = system: SNB-75
[27] = system: U-251
[28] = system: SK-MEL-28
[29] = system: SW-620
[30] = system: OVCAR-8
[31] = system: MCF7
[32] = system: IGROV-1
[33] = system: EKVX
[34] = system: CCRF-CEM
[35] = system: HCC 2998
[36] = system: SR
[37] = system: A498
[38] = system: PC-3
[39] = system: NCI/ADR-RES
[40] = system: SF-295
[41] = system: LOX IMVI
[42] = system: MOLT-4
[43] = system: SK-OV-3
[44] = system: UACC-257
[45] = system: HL-60
[46] = system: SF-268
[47] = system: RXF 393
[48] = system: HCT-116
[49] = system: MDA-MB-435
[50] = system: MDA-MB-231
[51] = system: HCT-15
[52] = system: RPMI-8226
[53] = system: K562
[54] = system: SNB-19
[55] = system: CAKI-1
[56] = system: A549
[57] = system: HT-29
[58] = system: MDA-N
[59] = system: Malme-3M

Structure (SMILES): O=C(c1ccccc1)c1cc[n+](C2=C([N-]S(=O)(=O)c3ccccc3)C(=O)c3ccccc3C2=O)cc1
- GI50 [1]: 13.5 µM (inactive)
- GI50 [2]: 4.74 µM (inactive)
- GI50 [3]: 1.88 µM (inactive)
- GI50 [4]: 11.7 µM (inactive)
- GI50 [5]: 7.13 µM (inactive)
- GI50 [6]: 13.9 µM (inactive)
- GI50 [7]: 2.01 µM (inactive)
- GI50 [8]: 12.9 µM (inactive)
- GI50 [9]: 3.66 µM (inactive)
- GI50 [10]: 18.3 µM (inactive)
- GI50 [11]: 10.6 µM (inactive)
- GI50 [12]: 3 µM (inactive)
- GI50 [13]: 13.7 µM (inactive)
- GI50 [14]: 12.6 µM (inactive)
- GI50 [15]: 13.1 µM (inactive)
- GI50 [16]: 3.1 µM (inactive)
- GI50 [17]: 12.7 µM (inactive)
- GI50 [18]: 3.12 µM (inactive)
- GI50 [19]: 15.8 µM (inactive)
- GI50 [20]: 11.1 µM (inactive)
- GI50 [21]: 19.2 µM (inactive)
- GI50 [22]: 6.76 µM (inactive)
- GI50 [23]: 8.61 µM (inactive)
- GI50 [24]: 6.85 µM (inactive)
- GI50 [25]: 3.33 µM (inactive)
- GI50 [26]: 11.6 µM (inactive)
- GI50 [27]: 4.38 µM (inactive)
- GI50 [28]: 3.22 µM (inactive)
- GI50 [29]: 10 µM (inactive)
- GI50 [30]: 13 µM (inactive)
- GI50 [31]: 8.79 µM (inactive)
- GI50 [32]: 9.35 µM (inactive)
- GI50 [33]: 14 µM (inactive)
- GI50 [34]: 2.1 µM (inactive)
- GI50 [35]: 11.4 µM (inactive)
- GI50 [36]: 3.08 µM (inactive)
- GI50 [37]: 18.1 µM (inactive)
- GI50 [38]: 11.1 µM (inactive)
- GI50 [39]: 9.38 µM (inactive)
- GI50 [40]: 11.8 µM (inactive)
- GI50 [41]: 2.42 µM (inactive)
- GI50 [42]: 3.05 µM (inactive)
- GI50 [43]: 15.4 µM (inactive)
- GI50 [44]: 11.6 µM (inactive)
- GI50 [45]: 2.15 µM (inactive)
- GI50 [46]: 11.5 µM (inactive)
- GI50 [47]: 12.4 µM (inactive)
- GI50 [48]: 11.3 µM (inactive)
- GI50 [49]: 1.72 µM (inactive)
- GI50 [50]: 12.9 µM (inactive)
- GI50 [51]: 14.4 µM
- GI50 [52]: 3.3 µM (inactive)
- GI50 [53]: 2.65 µM (inactive)
- GI50 [54]: 13.8 µM (inactive)
- GI50 [55]: 2.36 µM (inactive)
- GI50 [56]: 14.5 µM (inactive)
- GI50 [57]: 14.4 µM (inactive)
- GI50 [58]: 1.86 µM (inactive)
- GI50 [59]: 4.34 µM (inactive)

Structure (SMILES): O=C(O)[C@H]1NC[C@H]2C(Br)=NO[C@@H]12
- GI50 [1]: > 100 µM (inactive)
- GI50 [2]: > 100 µM (inactive)
- GI50 [3]: > 100 µM (inactive)
- GI50 [4]: > 100 µM (inactive)
- GI50 [5]: > 100 µM (inactive)
- GI50 [6]: > 100 µM (inactive)
- GI50 [7]: > 100 µM (inactive)
- GI50 [8]: > 100 µM (inactive)
- GI50 [9]: > 100 µM (inactive)
- GI50 [10]: > 100 µM (inactive)
- GI50 [11]: > 100 µM (inactive)
- GI50 [12]: > 100 µM (inactive)
- GI50 [13]: > 100 µM (inactive)
- GI50 [14]: > 100 µM (inactive)
- GI50 [15]: > 100 µM (inactive)
- GI50 [16]: > 100 µM (inactive)
- GI50 [17]: > 100 µM (inactive)
- GI50 [18]: > 100 µM (inactive)
- GI50 [19]: > 100 µM (inactive)
- GI50 [20]: > 100 µM (inactive)
- GI50 [21]: > 100 µM (inactive)
- GI50 [22]: > 100 µM (inactive)
- GI50 [23]: > 100 µM (inactive)
- GI50 [24]: > 100 µM (inactive)
- GI50 [25]: > 100 µM (inactive)
- GI50 [26]: > 100 µM (inactive)
- GI50 [27]: > 100 µM (inactive)
- GI50 [28]: > 100 µM (inactive)
- GI50 [29]: > 100 µM (inactive)
- GI50 [30]: > 100 µM (inactive)
- GI50 [31]: > 100 µM (inactive)
- GI50 [32]: > 100 µM (inactive)
- GI50 [33]: > 100 µM (inactive)
- GI50 [34]: > 100 µM (inactive)
- GI50 [35]: > 100 µM (inactive)
- GI50 [36]: > 100 µM (inactive)
- GI50 [37]: > 100 µM (inactive)
- GI50 [38]: > 100 µM (inactive)
- GI50 [39]: > 100 µM (inactive)
- GI50 [40]: > 100 µM (inactive)
- GI50 [41]: > 100 µM (inactive)
- GI50 [42]: > 100 µM (inactive)
- GI50 [43]: > 100 µM (inactive)
- GI50 [44]: > 100 µM (inactive)
- GI50 [45]: > 100 µM (inactive)
- GI50 [46]: > 100 µM (inactive)
- GI50 [47]: > 100 µM (inactive)
- GI50 [48]: > 100 µM (inactive)
- GI50 [49]: > 100 µM (inactive)
- GI50 [50]: > 100 µM (inactive)
- GI50 [51]: > 100 µM
- GI50 [52]: > 100 µM (inactive)
- GI50 [53]: > 100 µM (inactive)
- GI50 [54]: > 100 µM (inactive)
- GI50 [55]: > 100 µM (inactive)
- GI50 [56]: > 100 µM (inactive)
- GI50 [57]: > 100 µM (inactive)
- GI50 [58]: > 100 µM (inactive)
- GI50 [59]: > 100 µM (inactive)

Reference: ChEMBL document CHEMBL1201862, “PubChem BioAssay data set” (2004)
